Assay results from publication PMC2706098 (Molecular pharmaceutics, 2009).

Legend:
LinkCD = experiment: UV absorbance at […] nm of quenched aliquots, double-reciprocal plot; assay type: biochemical, Homo sapiens; Saccharomyces cerevisiae; details: read-out: Enzyme kinetics (5-FC) / Km; PBS, 37 °C; CD active site
Nc1nc(=O)[nH]cc1F = experiment: purified protein; assay type: biochemical, Saccharomyces cerevisiae; details: PBS, 37 °C, one experiment

Row | Molecule | Km (LinkCD) | Vmax (Nc1nc(=O)[nH]cc1F)
1 | Nc1nc(=O)[nH]cc1F [5-FC, 5-fluorocytosine] | 330 ± 40 µM | 
2 | CD (yeast cytosine deaminase) (Saccharomyces cerevisiae S288C) |  | 120000 µM/min/mg
